Assay results reported in ChEMBL document CHEMBL5728229, “Halo-substituted piperidines as orexin receptor modulators” (2021).
pIC50: −log10 of the molar value.

Columns and labels:
[1] = target: T1, Orexin/Hypocretin receptor type 1 (Homo sapiens, UniProt O43613); assay: (§1) Orexin Receptor Cell-Based Functional Assay: Measurement of [Ca2+]i using a FLIPR: CHO—OX1 or CHO—OX2 cells were seeded into black-walled clear-base 384-well plates (Corning, catalog #3712) at a density of 20,000 cells per well in F12-K medium supplemented with 10% FBS and then incubated in a 5% CO2, 37° C. incubator overnight to reach 90% confluency. The cells were incubated with equal volume of calcium 6 loading buffer (Molecular Devices, Inc.) containing 2.5 mM probenecid at 37° C. for 2 h, followed by test compounds (dose-range 0.1 nM-10 μM) for another 30 min. The plates were then placed into a FLIPR (Molecular Devices, Inc.) to monitor fluorescence (λ excitation 488 nm, λ emission 540 nm) before and after the addition of EC90 of [OX].
T1 sequence (O43613 whole entry): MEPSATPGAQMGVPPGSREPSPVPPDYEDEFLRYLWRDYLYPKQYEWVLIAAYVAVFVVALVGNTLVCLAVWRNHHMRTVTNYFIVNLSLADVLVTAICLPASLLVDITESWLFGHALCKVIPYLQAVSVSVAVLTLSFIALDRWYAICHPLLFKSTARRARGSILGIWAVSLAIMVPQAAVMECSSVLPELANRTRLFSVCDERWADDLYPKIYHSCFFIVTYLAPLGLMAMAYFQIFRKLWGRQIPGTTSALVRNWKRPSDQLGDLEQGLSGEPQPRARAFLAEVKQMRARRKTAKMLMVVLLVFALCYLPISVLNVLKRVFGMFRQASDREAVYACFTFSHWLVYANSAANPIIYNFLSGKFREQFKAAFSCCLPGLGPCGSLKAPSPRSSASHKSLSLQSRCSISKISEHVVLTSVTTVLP

Orexin receptor type 2 = target: T2, Orexin receptor type 2 (Homo sapiens, UniProt O43614); assay: as §1
T2 sequence (O43614 whole entry): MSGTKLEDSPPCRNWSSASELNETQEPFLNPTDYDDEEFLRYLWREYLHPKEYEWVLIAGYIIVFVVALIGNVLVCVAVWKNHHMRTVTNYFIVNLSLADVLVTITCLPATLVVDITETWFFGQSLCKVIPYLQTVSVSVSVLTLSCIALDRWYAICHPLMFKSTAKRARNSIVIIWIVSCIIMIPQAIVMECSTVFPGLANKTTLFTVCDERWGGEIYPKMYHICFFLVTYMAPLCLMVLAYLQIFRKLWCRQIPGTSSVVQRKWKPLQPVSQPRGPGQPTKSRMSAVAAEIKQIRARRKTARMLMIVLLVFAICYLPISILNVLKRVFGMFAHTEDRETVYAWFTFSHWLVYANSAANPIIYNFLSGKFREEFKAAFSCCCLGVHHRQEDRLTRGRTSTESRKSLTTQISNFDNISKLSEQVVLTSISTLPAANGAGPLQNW

Row | pIC50 [1] | pIC50 (Orexin receptor type 2) | Structure (SMILES)
1 | 6.00 | – | C[C@@H]1CC(F)(F)CN(C(=O)c2nn(C)cc2-c2ncc(F)cn2)[C@@H]1COc1cnc(C(F)(F)F)cn1
2 | 6.00 | – | C[C@@H]1CC(F)(F)CN(C(=O)c2nn(C)cc2-c2ncc(F)cn2)[C@@H]1COc1ncc(C(F)(F)F)cc1F
3 | 8.10 | < 5.30 | C[C@@H]1CC(F)(F)CN(C(=O)c2nn(C)cc2-c2ccccc2)[C@@H]1COc1ccc(C(F)(F)F)cn1
